Test results from patent publication US20250388583A1, “COMPOUNDS AND METHOD FOR PKMYT1 INHIBITION” (Engine Biosciences Pte. Ltd., priority 2022, published 2025).

Tests used:
[1] = target: PKMYT1 (Homo sapiens (Human), UniProt Q99640); test: In vitro assay: kinase binding to immobilized ligand, captured kinase measured by qPCR
[2] = target: LCK (Homo sapiens (Human), UniProt P06239); test: as above
From the text: Example B-1: In Vitro Assay
Compounds that bind the kinase active site and directly (sterically) or indirectly (allosterically) prevent kinase binding to an immobilized ligand and reduce the amount of kinase captured on the solid support. Screening “hits” were identified by measuring the amount of kinase captured in test versus control samples by using a quantitative, precise and ultra-sensitive qPCR method that detect the associated DNA label. In a similar manner, dissociation constants (Kd's) for test compound-kinase interactions were calculated by measuring the amount of kinase captured on the solid support as a function of the test compound concentration.

Sequence of LCK (P06239 whole entry): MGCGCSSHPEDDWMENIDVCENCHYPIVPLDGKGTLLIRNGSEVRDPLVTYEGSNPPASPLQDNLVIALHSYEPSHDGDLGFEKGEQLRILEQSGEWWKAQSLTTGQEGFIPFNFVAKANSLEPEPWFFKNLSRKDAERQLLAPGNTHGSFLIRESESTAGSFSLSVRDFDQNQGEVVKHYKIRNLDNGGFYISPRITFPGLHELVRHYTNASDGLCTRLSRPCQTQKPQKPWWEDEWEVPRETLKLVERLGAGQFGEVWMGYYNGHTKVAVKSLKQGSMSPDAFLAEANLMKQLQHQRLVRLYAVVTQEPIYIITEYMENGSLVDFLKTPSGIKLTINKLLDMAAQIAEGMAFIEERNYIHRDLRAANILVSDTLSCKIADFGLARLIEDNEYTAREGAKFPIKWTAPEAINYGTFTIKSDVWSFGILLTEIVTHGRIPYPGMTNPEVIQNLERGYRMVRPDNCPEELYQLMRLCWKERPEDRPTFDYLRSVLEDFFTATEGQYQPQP
Sequence of PKMYT1 (Q99640 whole entry): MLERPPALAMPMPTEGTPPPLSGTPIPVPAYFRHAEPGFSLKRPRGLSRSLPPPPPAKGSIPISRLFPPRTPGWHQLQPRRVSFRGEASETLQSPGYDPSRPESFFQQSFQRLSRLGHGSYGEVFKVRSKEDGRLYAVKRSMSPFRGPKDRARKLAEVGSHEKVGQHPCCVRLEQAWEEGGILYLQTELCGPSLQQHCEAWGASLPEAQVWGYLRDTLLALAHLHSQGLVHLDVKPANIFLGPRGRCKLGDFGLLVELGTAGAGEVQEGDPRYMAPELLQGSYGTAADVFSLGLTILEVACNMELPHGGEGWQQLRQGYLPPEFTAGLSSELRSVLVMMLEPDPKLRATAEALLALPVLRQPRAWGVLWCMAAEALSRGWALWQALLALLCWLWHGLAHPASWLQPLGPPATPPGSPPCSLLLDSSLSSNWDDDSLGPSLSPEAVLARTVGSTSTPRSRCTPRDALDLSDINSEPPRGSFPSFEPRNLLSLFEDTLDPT

IC50 [1] [nM]	IC50 [2] [nM]	SMILES
< 50	< 50	Cc1ncc2c(C(N)=O)c(N)n(-c3c(C)c(O)cc(F)c3C)c2n1 (atropisomer, axis not shown) [Compound 606, 6-amino-7-(3-fluoro-5-hydroxy-2,6-dimethyl-phenyl)-2-methyl-pyrrolo[2,3-d]pyrimidine-5-carboxamide]
> 1000	> 1000	Cc1ncc2c(C(N)=O)c(N)n(-c3c(C)c(O)cc(F)c3C)c2n1 (atropisomer, axis not shown) [Compound 607, 6-amino-7-(3-fluoro-5-hydroxy-2,6-dimethyl-phenyl)-2-methyl-pyrrolo[2,3-d]pyrimidine-5-carboxamide]
	< 50	Cc1c(O)cc(F)c(C)c1-n1c(N)c(C(N)=O)c2cnc(C3CC3)c(F)c21 (atropisomer, axis not shown) [Compound 655]
< 50	< 50	Cc1c(O)cc(F)c(C)c1-n1c(N)c(C(N)=O)c2cnc(C3CC3)nc21 (atropisomer, axis not shown) [Compound 656]
100 to 1000	100 to 1000	Cc1c(O)cc(F)c(C)c1-n1c(N)c(C(N)=O)c2cc(Cl)cnc21 (single isomer, unassigned) [Compound 576, 2-amino-5-chloro-1-(3-fluoro-5-hydroxy-2,6-dimethylphenyl)-1H-pyrrolo[2,3-b]pyridine-3-carboxamide]
	< 50	Cc1ncc2c(C(N)=O)c(N)n(-c3c(C)ccc(O)c3C)c2n1 (single isomer, unassigned) [Compound 577, 6-amino-7-(3-hydroxy-2,6-dimethyl-phenyl)-2-methyl-pyrrolo[2,3-d]pyrimidine-5-carboxamide]
	> 1000	Cc1ncc2c(C(N)=O)c(N)n(-c3c(C)ccc(O)c3C)c2n1 (single isomer, unassigned) [Compound 578, 6-amino-7-(3-hydroxy-2,6-dimethyl-phenyl)-2-methyl-pyrrolo[2,3-d]pyrimidine-5-carboxamide]
> 1000	100 to 1000	COc1cnc(C)c(-n2c(N)c(C(N)=O)c3cc(Cl)cnc32)c1C [Compound 542, 2-amino-5-chloro-1-(5-methoxy-2,4-dimethylpyridin-3-yl)-1H-pyrrolo[2,3-b]pyridine-3-carboxamide]
< 50	100 to 1000	Cc1ncc(O)c(C)c1-n1c(N)c(C(N)=O)c2cc(Cl)cnc21 [Compound 543]
> 1000	100 to 1000	Cc1cc2ccoc2c(C)c1-n1c(N)c(C(N)=O)c2cc(Cl)cnc21 [Compound 544, 2-amino-5-chloro-1-(5,7-dimethylbenzofuran-6-yl)-1H-pyrrolo[2,3-b]pyridine-3-carboxamide]
< 50	50 to 100	Cc1ccc(O)c(C)c1-n1c(N)c(C(N)=O)c2cncnc21 [Compound 547, 6-amino-7-(3-hydroxy-2,6-dimethylphenyl)-7H-pyrrolo [2,3-d]pyrimidine-5-carboxamide]
< 50	< 50	Cc1cnc2c(c1)c(C(N)=O)c(N)n2-c1c(C)ccc(O)c1N [Compound 556, 2-amino-1-(2-amino-3-hydroxy-6-methylphenyl)-5-methyl-1H-pyrrolo[2,3-b]pyridine-3-carboxamide]
< 50	< 50	Cc1ccc(O)c(C)c1-n1c(N)c(C(N)=O)c2cnc(NCCO)nc21 [Compound 559, 6-amino-7-(3-hydroxy-2,6-dimethylphenyl)-2-((2-hydroxyethyl)amino)-7H-pyrrolo[2,3-d]pyrimidine-5-carboxamide]
	100 to 1000	Cc1cc2c(C(N)=O)c(N)n(-c3c(C)ncc(O)c3C)c2nc1C [Compound 560, 2-amino-1-(5-hydroxy-2,4-dimethylpyridin-3-yl)-5,6-dimethyl-1H-pyrrolo[2,3-b]pyridine-3-carboxamide]
50 to 100	100 to 1000	Cc1cnc2c(c1)c(C(N)=O)c(N)n2-c1c(C)ncc(O)c1C [Compound 561, 2-Amino-1-(5-hydroxy-2,4-dimethyl-3-pyridyl)-5-methyl-pyrrolo[2,3-b]pyridine-3-carboxamide]
< 50	< 50	Cc1c(O)cc(F)c(C)c1-n1c(N)c(C(N)=O)c2cc(Cl)cnc21 [Compound 565, 2-amino-5-chloro-1-(3-fluoro-5-hydroxy-2,6-dimethylphenyl)-1H-pyrrolo[2,3-b]pyridine-3-carboxamide]
< 50	100 to 1000	Cc1nc(C)c2c(C(N)=O)c(N)n(-c3c(C)ccc(O)c3C)c2n1 [Compound 566, 6-amino-7-(3-hydroxy-2,6-dimethylphenyl)-2,4-dimethyl-7H-pyrrolo[2,3-d]pyrimidine-5-carboxamide]
< 50		Cc1ccc(O)c(C)c1-n1c(N)c(C(N)=O)c2cnc(N3CC[C@H](O)C3)nc21 [Compound 581, 6-amino-7-(3-hydroxy-2,6-dimethyl-phenyl)-2-[(3S)-3-hydroxypyrrolidin-1-yl]pyrrolo[2,3-d]pyrimidine-5-carboxamide]

IC50 [1] [nM]	IC50 [2] [nM]	SMILES
< 50		Cc1ccc(O)c(C)c1-n1c(N)c(C(N)=O)c2c(C)ncc(F)c21 [Compound 582, 2-amino-7-fluoro-1-(3-hydroxy-2,6-dimethyl-phenyl)-4-methyl-pyrrolo[3,2-c]pyridine-3-carboxamide]
< 50		Cc1ccc(O)c(C)c1-n1c(N)c(C(N)=O)c2cnc(N3CC[C@@H](O)C3)nc21 [Compound 583, 6-amino-7-(3-hydroxy-2,6-dimethyl-phenyl)-2-[(3R)-3-hydroxypyrrolidin-1-yl]pyrrolo[2,3-d]pyrimidine-5-carboxamide]
100 to 1000		Cc1ccc(O)c(C)c1-n1c(N)c(C(N)=O)c2cnc(NC(=O)[C@H]3CCCN3)nc21 [Compound 584, 6-amino-7-(3-hydroxy-2,6-dimethylphenyl)-2-(pyrrolidine-2-carboxamido)-7H-pyrrolo[2,3-d]pyrimidine-5-carboxamide]
< 50		Cc1ccc(O)c(C)c1-n1c(N)c(C(N)=O)c2cncc(C#N)c21 [Compound 587, 2-amino-7-cyano-1-(3-hydroxy-2,6-dimethylphenyl)-1H-pyrrolo[3,2-c]pyridine-3-carboxamide]
50 to 100	100 to 1000	Cc1ccc(O)c(C)c1-n1c(N)c(C(N)=O)c2cnc(CO)nc21 [Compound 592, 6-amino-7-(3-hydroxy-2,6-dimethylphenyl)-2-(hydroxymethyl)-7H-pyrrolo[2,3-d]pyrimidine-5-carboxamide]
< 50	100 to 1000	Cc1ccc(O)c(C)c1-n1c(N)c(C(N)=O)c2cnc(NC(=O)[C@@H]3CCCN3)nc21 [Compound 593, (S)-6-amino-7-(3-hydroxy-2,6-dimethylphenyl)-2-(pyrrolidine-2-carboxamido)-7H-pyrrolo[2,3-d]pyrimidine-5-carboxamide]
< 50		Cc1ncc2c(C(N)=O)c(N)n(-c3c(C)c(O)cc(F)c3C)c2n1 [Compound 595, 6-amino-7-(3-fluoro-5-hydroxy-2,6-dimethyl-phenyl)-2-methyl-pyrrolo[2,3-d]pyrimidine-5-carboxamide]
< 50	< 50	Cc1c(O)cc(F)c(C)c1-n1c(N)c(C(N)=O)c2cncc(F)c21 [Compound 599, 2-amino-7-fluoro-1-(3-fluoro-5-hydroxy-2,6-dimethylphenyl)-1H-pyrrolo[3,2-c]pyridine-3-carboxamide]
100 to 1000	100 to 1000	Cc1ccc(O)c(C)c1-n1c(N)c(C(N)=O)c2cnc(-c3ccc(C(C)(C)C)cc3)nc21 [Compound 600, 6-amino-2-(4-(tert-butyl)phenyl)-7-(3-hydroxy-2,6-dimethylphenyl)-7H-pyrrolo[2,3-d]pyrimidine-5-carboxamide]
< 50		Cc1ccc(O)c(C)c1-n1c(N)c(C(N)=O)c2cnc(C(F)(F)F)nc21 [Compound 608, 6-amino-7-(3-hydroxy-2,6-dimethylphenyl)-2-(trifluoromethyl)-7H-pyrrolo[2,3-d]pyrimidine-5-carboxamide]
< 50		CCN(CC)c1ncc2c(C(N)=O)c(N)n(-c3c(C)ccc(O)c3C)c2n1 [Compound 609, 6-amino-2-(diethylamino)-7-(3-hydroxy-2,6-dimethylphenyl)-7H-pyrrolo[2,3-d]pyrimidine-5-carboxamide]
< 50		Cc1ccc(O)c(C)c1-n1c(N)c(C(N)=O)c2cnc(Cl)nc21 [Compound 618, 6-amino-2-chloro-7-(3-hydroxy-2,6-dimethylphenyl)-7H-pyrrolo[2,3-d]pyrimidine-5-carboxamide]
< 50		Cc1ncc2c(C(N)=O)c(N)n(-c3c(C)c(O)cc(Cl)c3C)c2n1 [Compound 619, 6-amino-7-(3-chloro-5-hydroxy-2,6-dimethylphenyl)-2-methyl-7H-pyrrolo[2,3-d]pyrimidine-5-carboxamide]
< 50		Cc1ccc(O)c(C)c1-n1c(N)c(C(N)=O)c2cc3c(nc21)CCN3 [Compound 620]
< 50		Cc1ccc(O)c(C)c1-n1c(N)c(C(N)=O)c2cnc(C#CC3CC3)nc21 [Compound 621]
50 to 100		Cc1ccc(O)c(C)c1-n1c(N)c(C(N)=O)c2cnc(C#Cc3ccc(F)cc3)c(F)c21 [Compound 622, 2-amino-7-fluoro-6-((4-fluorophenyl)ethynyl)-1-(3-hydroxy-2,6-dimethylphenyl)-1H-pyrrolo[3,2-c]pyridine-3-carboxamide]
< 50		Cc1c(O)cc(F)c(C)c1-n1c(N)c(C(N)=O)c2cnc(C3CC3)c(F)c21 [Compound 623, 2-amino-6-cyclopropyl-7-fluoro-1-(3-fluoro-5-hydroxy-2,6-dimethyl-phenyl)pyrrolo[3,2-c]pyridine-3-carboxamide]
< 50		Cc1ccc(O)c(C)c1-n1c(N)c(C(N)=O)c2cnc(S(C)(=O)=O)nc21 [Compound 625, 6-amino-7-(3-hydroxy-2,6-dimethylphenyl)-2-(methylsulfonyl)-7H-pyrrolo[2,3-d]pyrimidine-5-carboxamide]
